System: moderate to severe papular pustular rosacea with perioral dermatitis
Assay: Treatment of a subject with the formulation, clinical examination after 1 month
Type: in vivo, human
Conditions: same subject, treatment history before the formulation, as reported at first visit
Excerpt: The lesions consisted of papules and pimples, was severe in severity, and had been present for months. […] The subject was having a bad “acne” flare up, and stated that their face was itchy and red. The subject had been treated for “acne” for a long time.
The subject was diagnosed with moderate to severe papular pustular rosacea with perioral dermatitis.
The subject was given the formulation of Example 1, and the subject administered it twice daily (AM and PM) and was seen again 1 month later, at which time their condition had improved. The subject's condition at this later examination was recorded in the images in FIGS. 2A to 2C.

CC1=C(/C=C/C(C)=C/C=C/C(C)=C/C(=O)O)C(C)(C)CCC1 [tretinoin]
improvement of "acne" lesions with previously tried treatment: no improvement
